This note sets out measurements from US4663347A, “Benzofuran 2-carboxylic acid esters useful as inhibitors of leukotriene biosynthesis” (Merck Frosst Canada, Inc., priority 1985, dated 1987).

Converted amounts (≈) assume the structure as drawn.

Assay [1] deals with leukotriene biosynthesis (mouse peritoneal macrophages). Nature of the assay: Mouse Macrophage Assay (leukotriene inhibition). In kind it is cell-based. Particulars: zymosan stimulated, read-out: LEUKOTRIENE INHIBITION MACROPHAGE ED50. The procedure:
Representative compounds of Formula I have been tested using the following assay to determine their mammalian leukotriene biosynthesis inhibiting activity.
Mouse peritoneal macrophages were treated sequentially with arachidonic acid (labelled with tritium); the compound being evaluated as an inhibitor, and a stimulator (zymosan). Metabolites derived from arachidonic acid (PGE2, 6-keto PG-F1α and Leukotriene C4) were separated from the incubation medium by extraction and chromatography, and then quantitated by determining the amount of radioactivity (cpm) associated with each of them. […] (This protocol is identical to that described in the reference except that the radioactivity herein associated with the LTC4 was determined by counting an aliquot of the final aqueous solution directly rather than chromatographying it first).
Reference: Humes, J. L. et al., J. Biol. Chem. 257, 1591-4 (1982).
The following table (Table II) reflects the leukotriene biosynthesis inhibiting ability of selected compounds of Formula I.

Assay [2] has as its system PAF-induced hyperalgesia (female Sprague-Dawley rats). The assay is described as follows: PAF-Induced Hyperalgesia Assay. The note with it: p.o. In kind it is in vivo, rat. The procedure:
PAF-Induced Hyperalgesia Assay
Female Sprague-Dawley rats, 35-40 g were fasted overnight. Platelet activating factor, PAF, (L-lecithin B-acetyl O-alkyl) 1 μg/0.1 ml was given by subplantar injection in the rat paw. The compounds to be evaluated were homogenized in Aqueous Vehicle (0.9% benzyl alcohol, 0.5% Tween 80 and 0.4% methylcellulose) and administered orally in a volume of 0.1 ml, 30 minutes prior to PAF.
Animals were tested 1, 2, 3 and 4 hours after PAF administration. The vocalization threshold, defined as the pressure (mmHg) needed to evoke a squeak response, was recorded for both the injected and contralateral paw. No animal was subjected to pressure greater than 60 mmHg. Hyperalgesia is defined as a decrease in vocalization threshold as compared to a normal paw. Percent inhibition of hyperalgesia was calculated as the proportion of animals with vocalization thresholds greater than 200% of controls.

A further assay has as its system asthmatic rats. The assay is described as follows: Asthmatic Rat Assay (duration of antigen-induced dyspnea). In kind it is in vivo. From the text: Rats were obtained from an inbred line of asthmatic rats. Both female and male rats from 200 to 300 g were used.
Egg albumin (EA), grade V, crystallized and lyophilized, was obtained from Sigma Chemical Co., St. Louis, Bordetella pertussis vaccine, containing 30×10^9 killed bacteria per ml was obtained from the Institut Armand-Frappier, Laval des Rapides, Quebec. Aluminum hydroxide was obtained from the Regis Chemical Company, Chicago.
The challenge and subsequent respiratory recordings were carried out in a clear plastic box with internal dimensions 10×6×4 inches. The top of the box was removable; in use, it was held firmly in place by four clamps and an airtight seal was maintained by a soft rubber gasket. […] A Fleisch No. 0000 pneumotachograph was inserted into one end of the box and coupled to a Grass volumetric pressure transducer (PT5-A) which was then connected to a Beckman Type R Dynograph through appropriate couplers. While aerosolizing the antigen, the outlets were open and the pneumatachograph was isolated from the chamber. The outlets were closed and the pneumotachograph and the chamber were connected during the recording of the respiratory patterns. […]
Rats were sensitized by injecting (s.c.) 1 ml of a suspension containing 1 mg EA and 200 mg aluminum hydroxide in saline. […] Rats were then exposed to an aerosol of 3% EA in saline for exactly 1 minute, then their respiratory profiles were recorded for a further 25-30 minutes. The duration of continuous dyspnea was measured from the respiratory recordings.
Compounds were generally administered either intraperitoneally 1 hour prior to challenge or orally 11/2 hours prior to challenge. […] Their activity was determined in terms of their ability to decrease the duration of symptoms of dyspnea in comparison with a group of vehicle-treated controls. Usually, a compound was evaluated at a series of doses and an ED50 was determined. […]

Turning to `CCOC(=O)c1oc2cccc(OC(=S)N(C)C)c2c1C`, the IC50 in assay [1] was 2.5 to 5 mg/L (≈ 8.13 to 16.3 µM).
Take `Cc1c(C(=O)Nc2ccccc2)oc2cccc(O)c12` [drawing 96]: the “PAF HYPERALGESIA (percent inhibition of hyperalgesia)” value in assay [2] (1.03 mg/kg) turned out to be 60%.
For `CCOC(=O)c1oc2cccc(OC(C)=O)c2c1C` [drawing 95], the “ASTHMATIC RAT (% inhibition of duration of dyspnea)” value with asthmatic rats (5 mg/kg, i.v.) is 63%. The “PAF HYPERALGESIA (percent inhibition of hyperalgesia)” value in assay [2] (10 mg/kg) amounted to 50%.
Take `Cc1c(C(=O)OC(C)(C)C)oc2cccc(O)c12` [drawing 94]: the “ASTHMATIC RAT (% inhibition of duration of dyspnea)” value with asthmatic rats (15 mg/kg, p.o.) is 41%. Besides, in assay [2] (10 mg/kg), the “PAF HYPERALGESIA (percent inhibition of hyperalgesia)” value came out at 60%.
Consider `Cc1c(C(=O)NNc2ccccc2)oc2cccc(O)c12` [drawing 91], for which the IC50 in assay [1] worked out at 1 mg/L (≈ 3.54 µM).
Turning to `Cc1c(C(=O)NNc2ccccc2)oc2cccc(O)c12` [drawing 97], the “PAF HYPERALGESIA (percent inhibition of hyperalgesia)” value in assay [2] (20 mg/kg) was found to be 50%.
As to `CCOC(=O)c1oc2cccc(O)c2c1C` [drawing 93], in the assay with asthmatic rats (5 mg/kg, i.v.), the “ASTHMATIC RAT (% inhibition of duration of dyspnea)” value came to 38%. The “PAF HYPERALGESIA (percent inhibition of hyperalgesia)” value in assay [2] (10 mg/kg) is 10%.
As for `CC(=O)Oc1cccc2oc(C(=O)Nc3ccccc3)c(C)c12`, the IC50 in assay [1] came out at 0.2 mg/L (≈ 0.647 µM).
Same read-out and setting: to `CCOC(=O)c1oc2cccc(SC(=O)N(C)C)c2c1C` belongs 5 mg/L (≈ 16.3 µM); to `Cc1c(C(=O)OC(C)(C)C)oc2cccc(O)c12` [drawing 83], 1 mg/L (≈ 4.03 µM); to `CCOC(=O)c1oc2cccc(O)c2c1C` [drawing 82], 0.2 mg/L (≈ 0.908 µM).
As to `Cc1c(C(=O)NNc2ccc(Cl)cc2)oc2cccc(O)c12` [drawing 98], the “PAF HYPERALGESIA (percent inhibition of hyperalgesia)” value in assay [2] (1 mg/kg) came to 60%.
As to `Cc1c(C(=O)NNc2ccc(Cl)cc2)oc2cccc(O)c12` [drawing 92], the IC50 in assay [1] came to 1 mg/L (≈ 3.16 µM).
With `Cc1c(C(=O)Nc2ccccc2)oc2cccc(O)c12` [drawing 90], the IC50 in assay [1] was 1 to 5 mg/L (≈ 3.74 to 18.7 µM).
On the same count and under the same terms, to `CC(=O)Oc1cccc2oc(C(=O)Nc3ccc(Cl)cc3)c(C)c12` belongs 0.2 mg/L (≈ 0.582 µM); to `CCOC(=O)c1oc2cccc(OC(C)=O)c2c1C` [drawing 86], 5 mg/L (≈ 19.1 µM); to `Cc1c(C(=O)O)oc2cccc(O)c12`, 5 mg/L (≈ 26 µM).
